Experimental data taken from PMC10005104 (Molecules, 2023).
“And” between values parts separate entries of the source, which are not always exact repeats. Equal values may be shown once. Where a name gives a salt, the structure may show the parent alone. Read-outs that look alike come from different tables or passages of the source. Marks after values point to notes of the source that are not given here.

Tests used:
human H3 receptor (hH3R) = biological target: T1, human H3 receptor (hH3R) (Homo sapiens, UniProt Q9Y5N1); experiment: [3H]-Nα-methylhistamine radioligand binding assay, HEK293 cell membranes expressing hH3R; conditions: hH3R Ki Mean [CI 95%], HEK293 cells expressing human H3 receptor; at least three independent repetitions
T1 construct: expressed in transfected cells; host or cells: HEK293
T1 sequence (Q9Y5N1 whole entry): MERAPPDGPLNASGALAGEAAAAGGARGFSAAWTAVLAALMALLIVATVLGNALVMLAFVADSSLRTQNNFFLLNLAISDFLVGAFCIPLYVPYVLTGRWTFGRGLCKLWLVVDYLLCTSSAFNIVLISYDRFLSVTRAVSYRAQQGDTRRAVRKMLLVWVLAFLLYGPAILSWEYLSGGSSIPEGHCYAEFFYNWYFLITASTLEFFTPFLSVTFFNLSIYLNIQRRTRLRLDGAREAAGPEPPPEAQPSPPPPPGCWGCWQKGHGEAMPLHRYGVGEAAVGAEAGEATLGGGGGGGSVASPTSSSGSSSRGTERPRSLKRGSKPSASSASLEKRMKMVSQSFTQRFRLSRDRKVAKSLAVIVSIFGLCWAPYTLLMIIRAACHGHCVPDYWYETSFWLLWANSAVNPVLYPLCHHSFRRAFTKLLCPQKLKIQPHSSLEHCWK
Method: The affinity for hH3R was assessed in vitro in radioligand binding assays, using membrane preparations of HEK293 cells stably expressing hH3R, while [^3H]-N^α-methylhistamine was used as a radioligand. The exact procedure was described previously by Kottke et al.. Novel compounds were tested as oxalic acid salts. […]. The activity depended on all three variables, i.e., the presence of an amine group, the chain length (five or six carbons), and the type of substituent in the phenyl ring. With regard to the change in the amine moiety, it can be observed that, regardless of the length of the chain and the type of R substituent, the activity of the derivatives was arranged in the following order: 3-methylpiperidine ≥ piperidine ≥ azepane >> 4-metylpiperidine derivatives. Regarding the length of the carbon chain, compounds bearing the pentylene chain are characterized by a higher binding affinity to the receptor than hexylene derivatives (exception: 10). […]
H3R receptor affinity assays were performed in the radioligand competition assay. Human H3R was stably expressed in HEK293 cells. [^3H]-N^α-Methylhistamine (KD = 3.08 nM) was used as the radioligand. The compounds used in the experiments were dissolved in DMSO. The precise experiment was performed as previously described. Complete curves were obtained for at least seven approximate concentrations, in at least three independent experiments, performed at least in duplicate. Ki values were calculated using the Cheng–Prusoff equation. Results are presented as mean values with confidence intervals (CI) (95%).

[1] = biological target: T2, AChE from electrophorus electricus (eeAChE) (Electrophorus electricus, UniProt O42275); experiment: modified Ellman colorimetric assay, eeAChE; format: biochemical; conditions: for inhibition at 10 µM: read-out: eeAChE % inh; for IC50: three independent experiments, read-out: eeAChE IC50 Mean ± SEM
T2 construct: purchased Sigma-Aldrich (Steinheim, Germany)
T2 sequence (O42275 24-633): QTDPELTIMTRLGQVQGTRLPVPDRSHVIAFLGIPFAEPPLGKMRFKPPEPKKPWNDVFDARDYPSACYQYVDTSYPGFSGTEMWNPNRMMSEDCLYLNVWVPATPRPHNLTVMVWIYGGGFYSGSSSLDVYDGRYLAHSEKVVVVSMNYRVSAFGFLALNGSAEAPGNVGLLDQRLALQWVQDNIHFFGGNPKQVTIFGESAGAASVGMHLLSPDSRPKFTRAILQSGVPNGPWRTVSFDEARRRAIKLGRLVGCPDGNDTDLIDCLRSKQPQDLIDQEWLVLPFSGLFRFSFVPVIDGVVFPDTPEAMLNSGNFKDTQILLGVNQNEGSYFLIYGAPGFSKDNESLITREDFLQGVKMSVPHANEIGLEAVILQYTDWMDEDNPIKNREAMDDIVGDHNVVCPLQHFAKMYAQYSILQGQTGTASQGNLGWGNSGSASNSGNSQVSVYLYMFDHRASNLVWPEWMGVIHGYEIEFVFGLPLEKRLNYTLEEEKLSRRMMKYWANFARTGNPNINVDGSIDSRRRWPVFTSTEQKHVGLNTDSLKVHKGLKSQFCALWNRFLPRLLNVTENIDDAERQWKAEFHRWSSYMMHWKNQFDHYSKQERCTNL
Method: All compounds were tested at a concentration of 10 µM in a modified colorimetric method first described by Ellman et al. in the 1960s, using AChE from electrophorus electricus (eeAChE) and BuChE from equine serum (eqBuChE). […]. All results are collected in Table 1. […]. […] No correlation was observed between inhibitory activity and hH3R affinity. The most interesting compounds were among the azepane derivatives. […]. AChE from electrophorus electricus and BuChE from equine serum were purchased from Sigma-Aldrich (Steinheim, Germany). The whole procedure was performed as previously described, using a modified Ellman method in 96-well microplates. Absorbance was measured using an EnSpire multimode microplate reader (PerkinElmer, Waltham, MA, USA) at 412 nm. Initial screening was performed for compounds at a concentration of […]. The percentage of inhibition was calculated by comparison with a blank sample (100% enzyme activity). For compounds showing >70% inhibition of enzyme activity, IC50 values were determined, measuring absorbance at six different inhibitor concentrations. Each concentration was measured in triplicate. IC50 values were calculated using GrapPad Prism 9 software (GraphPad Software, San Diego, CA, USA). Data are expressed as mean ± SEM.

[2] = biological target: T3, BuChE from equine serum (eqBuChE) (Equus caballus, UniProt P81908); experiment: biochemical; conditions: for inhibition at 10 µM: read-out: eqBuChE % inh
T3 construct: BuChE from equine serum (eqBuChE); purchased Sigma-Aldrich (Steinheim, Germany); host or cells: equine serum
T3 sequence (P81908 whole entry): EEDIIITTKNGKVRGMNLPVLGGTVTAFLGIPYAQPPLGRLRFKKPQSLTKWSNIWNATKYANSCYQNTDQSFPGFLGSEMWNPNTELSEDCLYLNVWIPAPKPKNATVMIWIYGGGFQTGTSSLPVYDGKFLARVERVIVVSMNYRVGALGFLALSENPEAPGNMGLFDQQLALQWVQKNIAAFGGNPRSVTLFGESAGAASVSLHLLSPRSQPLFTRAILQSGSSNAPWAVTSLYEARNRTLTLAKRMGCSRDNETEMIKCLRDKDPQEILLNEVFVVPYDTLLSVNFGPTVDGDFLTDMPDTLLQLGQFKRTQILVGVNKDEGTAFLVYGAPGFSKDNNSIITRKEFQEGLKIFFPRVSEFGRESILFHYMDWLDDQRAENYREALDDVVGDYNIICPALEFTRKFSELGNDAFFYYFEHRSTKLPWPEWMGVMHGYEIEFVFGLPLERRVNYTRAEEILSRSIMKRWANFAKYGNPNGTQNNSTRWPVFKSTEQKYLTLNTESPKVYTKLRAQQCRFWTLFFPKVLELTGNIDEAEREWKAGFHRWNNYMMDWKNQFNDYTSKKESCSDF
Method: AChE from electrophorus electricus and BuChE from equine serum were purchased from Sigma-Aldrich (Steinheim, Germany). The whole procedure was performed as previously described, using a modified Ellman method in 96-well microplates. […] Initial screening was performed for compounds at a concentration of […]. The percentage of inhibition was calculated by comparison with a blank sample (100% enzyme activity). […] Each concentration was measured in triplicate. IC50 values were calculated using GrapPad Prism 9 software (GraphPad Software, San Diego, CA, USA). Data are expressed as mean ± SEM.

hMAO B = biological target: T4, hMAO B (Homo sapiens, UniProt P27338); experiment: fluorometric Amplex red MAO assay; format: biochemical; conditions: read-out: hMAO B % inh
T4 construct: purchased Sigma-Aldrich (Steinheim, Germany)
T4 sequence (P27338 1-520): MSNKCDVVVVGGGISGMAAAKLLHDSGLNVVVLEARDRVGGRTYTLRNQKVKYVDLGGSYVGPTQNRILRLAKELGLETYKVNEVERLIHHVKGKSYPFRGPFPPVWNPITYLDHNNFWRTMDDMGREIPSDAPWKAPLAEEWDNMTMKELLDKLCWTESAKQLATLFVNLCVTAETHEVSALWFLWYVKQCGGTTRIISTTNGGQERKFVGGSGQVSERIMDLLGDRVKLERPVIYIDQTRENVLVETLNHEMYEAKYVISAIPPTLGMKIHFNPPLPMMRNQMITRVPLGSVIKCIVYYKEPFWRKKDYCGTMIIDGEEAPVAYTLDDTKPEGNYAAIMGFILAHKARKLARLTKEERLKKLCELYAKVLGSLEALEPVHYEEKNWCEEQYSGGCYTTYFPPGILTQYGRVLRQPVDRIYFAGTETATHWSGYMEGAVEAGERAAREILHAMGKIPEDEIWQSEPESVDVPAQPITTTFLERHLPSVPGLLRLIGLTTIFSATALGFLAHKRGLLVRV
Method: The ability to inhibit MAO B was estimated by a fluorescence assay, as previously described.
The enzyme was purchased from Sigma-Aldrich (Steinheim, Germany). Screening was carried out at a concentration of 1 micromolar. Inhibitor activity was measured in the presence of p-tyramine.
Data are expressed as mean values of two independent experiments.

MTS assay in HepG2 cells = format: cell-based; conditions: human, HepG2 hepatoma cells; at 50 µM, percentage of control (vehicle-treated cells); read-out: HepG2 Cell Viability (%)
Method: (§1) . After the indicated time, the MTS reagent was added directly to the cultured cells for 1 h, and then the absorbance at 490 nm was read. […] The results are presented in Table 2 and Figures S1 and S2 (Supplementary Materials).
(§2) The hepatoma cell line HepG2 (ATCC® HB-8065TM) and SH-SY5Y CRL-2266 neuroblastoma cell line were used to evaluate the toxicity of tested compounds. Tests were conducted as described previously. The CellTiter 96® Aqueous Non-Radioactive Cell Proliferation Assay was purchased from Promega (Madison, WI, USA). […]. […] Each experiment was performed twice, in triplicate.

HepG2 cells = experiment: MTS assay in HepG2 cells; format: cell-based; conditions: Homo sapiens, HepG2; MTS assay, 48 h of exposure
Method: as §1, §2

SH-SY5Y cells = experiment: MTS assay in SH-SY5Y cells; format: cell-based; conditions: at 50 µM, percentage of control (vehicle-treated cells)
Method: as §1, §2

[3] = MTS assay, statements on both cell lines together; format: cell-based, human; conditions: human, HepG2 hepatoma cells and SH-SY5Y neuroblastoma cells; HepG2 48 h, SH-SY5Y 24 h; up to 50 µM; read-out: cell viability at the highest doses tested
hH3R = conditions: cited from earlier work
[4] = biological target: T2, AChE from electrophorus electricus (eeAChE); conditions: at 10 µM; cited from earlier work
[5] = at 1 µM, two independent experiments

Structure (SMILES) | Ki (human H3 receptor (hH3R)) | inhibition at 10 µM [1] [%] | inhibition at 10 µM [2] [%] | inhibition at 1 µM (hMAO B; [5]) [%] | also measured
CC(=O)c1ccc(OCCCCCN2CCCCC2)cc1 [Compound 2, 1-(4-((5-(Piperidin-1-yl)pentyl)oxy)phenyl)ethan-1-one hydrogen oxalate] | < 50 nM and 34 nM | 45 | 25 | 2 | –
CC(=O)c1ccc(OCCCCCCN2CCCCC2)cc1 [Compound 3, 1-(4-((6-(Piperidin-1-yl)hexyl)oxy)phenyl)ethan-1-one hydrogen oxalate] | 75 nM | 67 | 23 | 3 | –
CCC(=O)c1ccc(OCCCCCN2CCCCC2)cc1 [Compound 4, 1-(4-((5-(Piperidin-1-yl)pentyl)oxy)phenyl)propan-1-one hydrogen oxalate] | < 50 nM and 24 nM | 49 | 32 | 16 | –
CCC(=O)c1ccc(OCCCCCCN2CCCCC2)cc1.O=C(O)C(=O)O [Compound 5, 1-(4-((6-(Piperidin-1-yl)hexyl)oxy)phenyl)propan-1-one hydrogen oxalate] | < 50 nM and 41 nM | – | – | 22 | IC50 [1]: 4790 ± 190 nM; IC50 ([2]; three independent experiments, read-out: eqBuChE IC50 Mean ± SEM): 1350 ± 40 nM; viability at 48 h, 50 µM (MTS assay in HepG2 cells): 69.5 ± 2.14%; IC50 (HepG2 cells): 158000 nM; SH-SY5Y Cell Viability (%) (SH-SY5Y cells): No toxic effect; viability at 50 µM [3]: > 50%
CC(=O)c1ccc(OCCCCCCN2CCCC(C)C2)cc1.O=C(O)C(=O)O (stereo not shown) [Compound 7, 1-(4-((6-(3-Methylpiperidin-1-yl)hexyl)oxy)phenyl)ethan-1-one hydrogen oxalate] | 72 nM | – | 18 | 0 | IC50 [1]: 1750 ± 50 nM; viability at 48 h, 50 µM (MTS assay in HepG2 cells): 72.4 ± 4.54%; IC50 (HepG2 cells): 148000 nM; SH-SY5Y Cell Viability (%) (SH-SY5Y cells): No toxic effect; viability at 50 µM [3]: > 50%
CCC(=O)c1ccc(OCCCCCCN2CCCC(C)C2)cc1 (stereo not shown) [Compound 9, 1-(4-((6-(3-Methylpiperidin-1-yl)hexyl)oxy)phenyl)propan-1-one hydrogen oxalate] | < 50 nM and 38 nM | 68 | 66 | 12 | –
CC(=O)c1ccc(OCCCCCN2CCC(C)CC2)cc1 [Compound 10, 1-(4-((5-(4-Methylpiperidin-1-yl)pentyl)oxy)phenyl)ethan-1-one hydrogen oxalate] | 120 nM | 60 | 43 | 0 | –
CC(=O)c1ccc(OCCCCCCN2CCC(C)CC2)cc1.O=C(O)C(=O)O [Compound 11, 1-(4-((6-(4-Methylpiperidin-1-yl)hexyl)oxy)phenyl)ethan-1-one hydrogen oxalate] | 106 nM | – | 49 | 0 | IC50 [1]: 2650 ± 110 nM; viability at 48 h, 50 µM (MTS assay in HepG2 cells): 77.5 ± 0.94%; IC50 (HepG2 cells): 223000 nM; SH-SY5Y Cell Viability (%) (SH-SY5Y cells): No toxic effect; viability at 50 µM [3]: > 50%
CCC(=O)c1ccc(OCCCCCCN2CCC(C)CC2)cc1.O=C(O)C(=O)O [Compound 13, 1-(4-((6-(4-Methylpiperidin-1-yl)hexyl)oxy)phenyl)propan-1-one hydrogen oxalate] | 58 nM | – | 65 | 1 | IC50 [1]: 2560 ± 80 nM; viability at 48 h, 50 µM (MTS assay in HepG2 cells): 64.7 ± 4.4%; IC50 (HepG2 cells): 105000 nM; SH-SY5Y Cell Viability (%) (SH-SY5Y cells): No toxic effect; viability at 50 µM [3]: > 50%
CC(=O)c1ccc(OCCCCCN2CCCCCC2)cc1 [Compound 14, 1-(4-((5-(Azepan-1-yl)pentyl)oxy)phenyl)ethan-1-one hydrogen oxalate] | 52 nM | 63 | 63 | 37 | –
CC(=O)c1ccc(OCCCCCCN2CCCCCC2)cc1 [Compound 15, 1-(4-((6-(Azepan-1-yl)hexyl)oxy)phenyl)ethan-1-one hydrogen oxalate] | 79 nM | 67 | 68 | 6 | –
Cc1ccc2oc(-c3ccc(OCCCCCCN4CCCCCC4)cc3)cc(=O)c2c1 [III] | – | – | – | – | Ki (hH3R): 160 nM
O=c1c2ccccc2oc2ccc(OCCCCCN3CCCCCC3)cc12 [IV] | – | – | – | – | Ki (hH3R): 170 nM
Clc1ccc(CCCOCCCN2CCCCC2)cc1 [pitolisant] | – | – | – | – | eeAChE % inh [4]: (3%) ^g
C#CCN[C@@H]1CCc2ccccc21 [rasagiline, reference compound] | – | – | – | – | inhibition at 1 µM (hMAO B): 100%
